Counter-ions that a name gives are not always drawn. Like-named read-outs stand apart in the source and are kept apart here.
Assays:
[1] = system: airway hyperresponsiveness; conditions: multiple antigen challenges, primate model; cited from earlier work
[2] = target: T1, recombinant human LTA4 hydrolase (rhLTA4H) (Homo sapiens, UniProt P09960); assay: Recombinant human LTA4 hydrolase assay for LTA4 hydrolase inhibitor activity; assay type: biochemical; conditions: rhLTA4H, LTB4 by immunoassay; single determination or average of two or more; mark after value = form tested: ′ free base, ″ hydrochloride, ^ formate; read-out: IC50
T1 construct: made in house; host or cells: Spodoptera frugiperda (Sf-9) cells, baculovirus (pFastBac1)
T1 sequence (P09960 1-611): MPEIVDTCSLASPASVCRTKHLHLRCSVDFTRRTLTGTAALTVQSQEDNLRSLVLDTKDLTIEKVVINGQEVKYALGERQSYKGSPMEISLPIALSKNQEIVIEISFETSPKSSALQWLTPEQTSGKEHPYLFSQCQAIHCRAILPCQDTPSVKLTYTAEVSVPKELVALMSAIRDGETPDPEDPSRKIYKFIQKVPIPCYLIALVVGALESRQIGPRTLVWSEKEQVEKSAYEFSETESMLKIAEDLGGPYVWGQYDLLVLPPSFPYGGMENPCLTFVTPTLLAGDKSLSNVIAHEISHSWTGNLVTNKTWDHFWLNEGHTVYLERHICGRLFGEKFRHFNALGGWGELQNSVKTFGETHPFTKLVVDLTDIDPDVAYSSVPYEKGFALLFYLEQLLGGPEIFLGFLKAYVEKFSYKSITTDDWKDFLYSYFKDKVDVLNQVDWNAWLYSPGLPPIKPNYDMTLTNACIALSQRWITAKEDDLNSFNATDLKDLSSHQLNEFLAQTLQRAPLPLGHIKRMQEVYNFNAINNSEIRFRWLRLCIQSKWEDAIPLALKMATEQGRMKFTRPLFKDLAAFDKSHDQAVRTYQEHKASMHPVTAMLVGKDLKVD
In short: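 LTB4 formation, measured by enzyme immunoassay, was the read-out. The enzyme, recombinant human LTA4H expressed in Sf-9 insect cells (10 ng per reaction), was exposed to compound for 10 min at room temperature before hydrolysed-ester LTA4 substrate was added for 30 min. Enzyme-free negatives were included.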

[3] = system: LTB4 production in murine blood (LTA4H); assay: LTB4 production by calcium ionophore-stimulated murine blood for LTA4H inhibitor activity; assay type: cell-based, CD-1 mice; conditions: Mus musculus
In short: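 LTB4 was measured by ELISA in supernatants after calcium ionophore A23187 stimulation (final 7 μg/mL, 30 min, 37° C) of CD-1 mouse blood collected on heparin. Compound was preincubated with the blood for 15 min beforehand. Values come from one determination or average several.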

[4] = system: arachidonic acid-induced neutrophil influx in murine ear tissue; assay: Murine arachidonic acid-induced inflammation model: neutrophil influx (myeloperoxidase) in ear; assay type: in vivo, Balb/c mice; conditions: Mus musculus, read-out: % Inh. MPO
[5] = system: ex vivo calcium ionophore-stimulated LTB4 production in whole blood; assay: Murine arachidonic acid-induced inflammation model: ex vivo stimulated LTB4 production in blood; parameters: species or system Balb/c mice; conditions: Mus musculus; 30 mg/kg oral gavage; blood diluted 1:1, A23187 stimulated ex vivo; percent inhibition of LTB4 production; read-out: % Inh. LTB4
[6] = system: ionophore-induced LTB4 production; conditions: oral administration; cited from earlier work
[7] = system: ionophore-induced LTB4 production; conditions: oral administration; cited from earlier work; remark: listed apart in the source
colitis symptoms = conditions: eight weeks of treatment; cited from earlier work
[8] = murine blood diluted 1 in 15, A23187 stimulated, single determination or average, mark after value = form tested: ′ free base, ″ hydrochloride, ^ formate, read-out: IC50
[9] = 30 mg/kg oral gavage, 60 min before topical arachidonic acid, ear biopsy after 3 h, percent inhibition of neutrophil influx

SMILES | airway hyperresponsiveness [1] | IC50 [2] [µM] | IC50 [3, 8] [µM] | inhibition at 30 mg/kg [4, 9] [%] | inhibition at 30 mg/kg [5] [%] | IC50 [3] [µM] | inhibition at 30 mg/kg ([4]; Neutrophil) [%] | ionophore-induced LTB4 production in mouse blood ex vivo [6] | ionophore-induced LTB4 production in rat peritoneum in vivo [7] | colitis symptoms (colitis symptoms)
O=C(O)C1(c2ccc3c(c2)OC[C@H](Cc2ccc(-c4ccccc4)cc2)[C@H]3O)CCCC1 [CP-105,696] | reduced | – | – | – | – | – | – | – | – | –
CS(=O)(=O)NC1CCN(Cc2coc3cc(Oc4nc5ncccc5s4)ccc23)CC1 [Example 244, N-{1-[6-(Thiazolo[4,5-b]pyridin-2-yloxy)-benzofuran-3-ylmethyl]-piperidin-4-yl}-methanesulfonamide] | – | 0.005 | 0.024 | 89 | 80.7 | – | – | – | – | –
O=C(O)C1CCN(Cc2coc3cc(Oc4nc5ccccc5s4)ccc23)CC1 [Example 248, 1-[6-(Benzothiazol-2-yloxy)-benzofuran-3-ylmethyl]-piperidine-4-carboxylic acid formate] | – | 0.012 | – | – | 83 | 0.02 | 90 | – | – | –
c1cnc2nc(Oc3ccc4c(CCN5CCOCC5)coc4c3)sc2c1 [Example 256, 2-[3-(2-Morpholin-4-yl-ethyl)-benzofuran-6-yloxy]-thiazolo[4,5-b]pyridine] | – | 0.061 | 0.26 | 83 | 68.4 | – | – | – | – | –
CC(=O)N1CCN(CCc2coc3cc(Oc4nc5ncccc5s4)ccc23)CC1 [Example 257, 1-(4-{2-[6-(Thiazolo[4,5-b]pyridin-2-yloxy)-benzofuran-3-yl]-ethyl}-piperazin-1-yl)-ethanone] | – | 0.003 | 0.169 | 87 | 68.7 | – | – | – | – | –
CC(=O)N1C[C@@H]2C[C@H]1CN2CCc1coc2cc(Oc3nc4ncccc4s3)ccc12 [Example 258, (1S,4S)-1-(5-{2-[6-(Thiazolo[4,5-b]pyridin-2-yloxy)-benzofuran-3-yl]-ethyl}-2,5-diaza-bicyclo[2.2.1]hept-2-yl)-ethanone] | – | 0.022 | 0.088 | 72 | 70.9 | – | – | – | – | –
OCC1CCN(Cc2coc3cc(Oc4nc5ncccc5s4)ccc23)CC1 [Example 269, {1-[6-(Thiazolo[4,5-b]pyridin-2-yloxy)-benzofuran-3-ylmethyl]-piperidin-4-yl}-methanol] | – | 0.004 | 0.012 | 92 | 74 | – | – | – | – | –
CC(=O)NC1CCN(Cc2coc3cc(Oc4nc5ncccc5s4)ccc23)C1 (stereo not shown) [Example 307, N-{1-[6-(Thiazolo[4,5-b]pyridin-2-yloxy)-benzofuran-3-ylmethyl]-pyrrolidin-3-yl}-acetamide formate] | – | 0.005 | 0.008 | – | 81 | – | 78 | – | – | –
CC(=O)N(C)C1CCN(Cc2coc3cc(Oc4nc5ncccc5s4)ccc23)C1 (stereo not shown) [Example 309, N-Methyl-N-{1-[6-(thiazolo[4,5-b]pyridin-2-yloxy)-benzofuran-3-ylmethyl]-pyrrolidin-3-yl}-acetamide] | – | 0.005 | 0.066 | 81 | 70 | – | – | – | – | –
CC(=O)N1C[C@@H]2CC[C@H]1CN2Cc1cc2ncc(Oc3nc4ncccc4s3)cc2o1 [Example 339, (1S,4S)-1-{5-[6-(Thiazolo[4,5-b]pyridin-2-yloxy)-furo[3,2-b]pyridin-2-ylmethyl]-2,5-diaza-bicyclo[2.2.2]oct-2-yl}-ethanone formate] | – | 0.012 | 0.07 | – | 50 | – | 50 | – | – | –
CC(=O)N1C[C@H]2C[C@@H]1CN2C(=O)c1cc2cc(Oc3nc4ncccc4s3)ccc2o1 [Example 366, (1R,4R)-1-{5-[5-(Thiazolo[4,5-b]pyridin-2-yloxy)-benzofuran-2-carbonyl]-2,5-diaza-bicyclo[2.2.1]hept-2-yl}-ethanone] | – | 0.02 | 0.061 | 50 | 78 | – | – | – | – | –
CC(=O)N[C@H]1C[C@H]2CC[C@@H](C1)N2C(=O)c1coc2cc(Oc3nc4ncccc4s3)ccc12 [Example 369, meso-endo-N-{8-[6-(Thiazolo[4,5-b]pyridin-2-yloxy)-benzofuran-3-carbonyl]-8-aza-bicyclo[3.2.1]oct-3-yl}-acetamide] | – | 0.019 | 0.1 | 76 | 58 | – | – | – | – | –
O=C(c1coc2cc(Oc3nc4ncccc4s3)ccc12)N1CCC(N2CCCC2=O)CC1 [Example 370, 1-{1-[6-(Thiazolo[4,5-b]pyridin-2-yloxy)-benzofuran-3-carbonyl]-piperidin-4-yl}-pyrrolidin-2-one] | – | 0.009 | 0.03 | – | 78 | – | 69 | – | – | –
CC(=O)N1C[C@@H]2C[C@H]1CN2C(=O)c1coc2cc(Oc3nc4ncccc4s3)ccc12 [Example 371, (1S,4S)-1-{5-[6-(Thiazolo[4,5-b]pyridin-2-yloxy)-benzofuran-3-carbonyl]-2,5-diaza-bicyclo[2.2.1]hept-2-yl}-ethanone] | – | 0.025 | 0.084 | 82 | 54 | – | – | – | – | –
CC(=O)N1CCCN(C(=O)c2coc3cc(Oc4nc5ncccc5s4)ccc23)CC1 [Example 372, 1-{4-[6-(Thiazolo[4,5-b]pyridin-2-yloxy)-benzofuran-3-carbonyl]-[1,4]diazepan-1-yl}-ethanone] | – | 0.03 | 0.047 | 53 | 62 | – | – | – | – | –
NC(=O)N1CC2CCC(C1)N2C(=O)c1coc2cc(Oc3nc4ncccc4s3)ccc12 [Example 374, meso-8-[6-(Thiazolo[4,5-b]pyridin-2-yloxy)-benzofuran-3-carbonyl]-3,8-diaza-bicyclo[3.2.1]octane-3-carboxylic acid amide] | – | 0.011 | 0.05 | 37 | 7 | – | – | – | – | –
CN(CCCOc1ccc(Cc2ccccc2)cc1)CCC(=O)O.Cl [SC57461] | – | – | – | – | – | – | – | caused inhibition | caused inhibition | significantly improved
